Holding throughout (assay): DTP human tumour cell line panel, 48 h
For test [1], the system named is 786-0 renal.
For test [2], the system named is HL-60(TB) leukemia.
Test [3] has as its system HOP-62 NSCLC.
For test [4], the system named is HOP-92 NSCLC.
The subject of test [5] is MOLT-4 leukemia.
Test [6] deals with NCI-H226 lung.
In test [7] the test system is SK-MEL-2 melanoma.
Test [8] deals with SK-MEL-5 melanoma.
Test [9] has as its system UACC-257 melanoma.
The subject of test [10] is UACC-62 melanoma.

Where “and” joins values, the source holds several entries; their conditions need not be identical. Identical values can stand only once.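 Grown in 96-well plates, cells were treated for 48 hours with each compound at five concentrations. Insufficient inhibition: endpoint recorded as highest concentration tested. Abbreviation: GI50, concentration required for 50% inhibition of growth. TGI denotes the concentration required for complete inhibition of growth.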 Some results are limits rather than exact numbers.

The GI50 is the concentration that inhibits growth by half. As usually defined, the TGI is the concentration at which net growth stops. A high value points to lower sensitivity of the cells. On to `O=C(NNc1nc(Cl)nc(N2CCN(C(c3ccccc3)c3ccccc3)CC2)n1)c1ccccc1`, for which the GI50 in test [1] is 2.21 µM; in [2] it was 2.15 µM; in test [3] it was 1.88 µM; in test [4], 1.72 µM; in test [5], 1.66 µM; in test [6], 7.25 µM. Also, the GI50 in test [7] was 1.83 µM; in test [8] it was 5.35 µM; in test [9], 2.06 µM; in [10], 1.72 µM. For the same molecule, the TGI in [1] was 4.84 µM; in test [2], 6.26 µM; in [3], 4.04 µM; in [4], 3.68 µM; in test [5], 5.13 µM; in test [6], 25.8 µM. Further, the TGI came out at 3.55 µM in test [7], 18.8 µM in [8], 4.67 µM in test [9] and 3.29 µM in test [10].

Take `CCc1cccc(C(C)C)c1NC(=O)C(=O)C(Cc1nc2ccccc2[nH]c1=O)C(=O)OC` (stereo not drawn): the TGI in test [1], in test [2], in [3], in test [4], in test [5] and in [6] was over 100 µM throughout. Moreover, the TGI in test [7], in test [8], in test [9] and in [10] was over 100 µM throughout.

For the molecule `CC1OC(OCC2OC(Oc3c(-c4ccc(O)cc4)oc4cc(O)cc(O)c4c3=O)C(OC3OCC(O)(CO)C3O)C(O)C2O)C(O)C(O)C1O` (stereo not drawn), the TGI in test [1] is over 100 µM; in [2] it was 38.7 µM; in test [3], over 100 µM; in test [4], over 100 µM; in [5], over 100 µM; in test [6] it was over 100 µM. The TGI in test [7], in test [8], in test [9] and in test [10] was over 100 µM in each case.

Turning to `COc1ccc(C(=O)/C(Br)=C/C(=O)O)cc1`, the GI50 in [1] is 10.8 µM and 30.7 µM; in test [2], 19.1 µM; in test [3] it was 24.1 µM; in test [5], 21 µM; in test [6] it was 39.1 µM; in [8] it was 12.7 µM. Further, the results for the GI50 in test [9] and in test [10] were 21.9 µM and 12.3 µM, respectively. In addition, the TGI in test [1] is 56.1 µM and 99.1 µM; in [2], 95.7 µM and 128 µM; in test [3], 58.3 µM and 50.3 µM; in [4] it was 93.7 µM and 93.6 µM; in test [5] it was 98.5 µM and 86.5 µM; in [6], 148 µM and 145 µM. Besides, the TGI in [7] was 29.3 µM and 32 µM; in test [8], 39.6 µM and 47.7 µM; in test [9] it was 74.4 µM and 85.1 µM; in test [10], 45.3 µM and 32.3 µM.

For `O=C1CC(O)C=C1Nc1ccc(Cl)cc1` (stereo not drawn), the TGI in test [1] was over 100 µM; in test [2], 95.6 µM; in test [3] it was over 100 µM; in test [4], over 100 µM; in [5], over 100 µM; in test [6] it was over 100 µM. In addition, the TGI in test [7] is over 100 µM; in test [8] it was over 100 µM; in test [9], over 100 µM; in test [10], 5.14 µM.

For the origin of these results see PubChem BioAssay (NCI).
